Patent US12005128B1, “Near infrared small molecule probes for the detection of cellular senescence” (UNM Rainforest Innovations, priority 2019, dated 2024)

Legend:
[1] = system: MCF7 cells; assay: Flow cytometry detection of senescence in drug or radiation treated cancer cells; type: cell-based, human
Protocol: FIG. 18 is a graph showing Flow cytometry of MCF7 cells without treatment, or with CPT, CPT/CHX, or radiation treatment. Probe concentration, 10 μM. λex=640 nm; PerCP bandpass filter at 675/25 nm. ***P<0.001.
(§1) With the confidence of our probe being able to detect β-gal in live cells, we moved further to evaluate whether it could differentiate senescent cells and normal cells. Human cervical cancer cells (HeLa) and metastatic breast cancer cells (MCF7), were used in all four groups of cells evaluated. Senescence in HeLa and MCF7 cells were induced using camptothecin (CPT), an inhibitor of DNA topoisomerase I that could cause lethal DNA strand breaks^59. […] Radiation therapy is another effective method for cancer treatment in clinic; it can also induce cell cycle arrest leading to senescence. All four groups of cells, with no drug treatment, with CPT treatment, with both CPT and CHX treatment, or with 10 Gy radiation treatment, were then incubated with our NIR-BG probe, followed by flow cytometry (FIGS. 16-19).

[2] = system: HeLa cells; assay: as above; type: cell-based, human
Protocol: FIG. 16 is a graph showing detection of senescence in human cancer cells via flow cytometry of HeLa cells without treatment, or with CPT, CPT/CHX, or radiation treatment. Probe concentration, 10 μM. λex=640 nm; PerCP bandpass filter at 675/25 nm. ***P<0.001.
as §1

[3] = system: MCF7 cells; assay: Western blot of cell lysates for β-gal, p16 and p21; type: cell-based, human
Source text: FIG. 22 is a western blot of β-gal, p16, and p21 expression in MCF7 cells without drug treatment, with CPT or radiation treatment. ***P<0.001, **P<0.005.
FIG. 23 is a quantification of FIG. 22.
(§2) Cell cycle inhibitors p21 and p16 are often expressed by senescent cells^1. Therefore, we examined the cell lysates of all cell samples from the imaging studies using Western blot (FIGS. 20-24). […] In addition to HeLa cells, MCF7 cells also expressed higher levels of p16 and p21 upon CPT treatment (FIGS. 22, 23). The Western blot results confirmed the senescent state of these drug or radiation treated cells used in the imaging experiments.

[4] = system: HeLa tumors; assay: HeLa tumor growth with and without CPT treatment; type: in vivo; settings: HeLa xenografted mice, systemic treatment
Source text: (The tumors of control group reached the maximum volume limitation and were imaged and euthanized.)

[5] = system: HeLa cells; assay: Western blot of cell lysates for β-gal, p16 and p21; type: cell-based, human
Source text: FIG. 20 is a western blot of cell lysates of β-gal, p16, and p21 expression in HeLa cells without drug treatment, with CPT or radiation treatment. ***P<0.001, **P<0.005.
FIG. 21 is a quantification of FIG. 20.
as §2

[6] = system: CT26.CL25 cells; assay: Fluorescence microscope imaging of LacZ(+) cells by NIR-BG1 and NIR-BG2; type: cell-based, mouse
Source text: (§3) In order to further verify that our probe can specifically detect β-gal in cells, CT26.CL25 cells were imaged with our probes and compared with the CT26.WT cells.

[7] = system: CT26.WT cells; assay: Fluorescence microscope imaging of wild type cells by NIR-BG1 and NIR-BG2; type: cell-based, mouse
Source text: as §3

[8] = system: HeLa cells; assay: Imaging of β-gal in senescent and normal HeLa cells by NIR-BG1 and NIR-BG2; type: cell-based, human; settings: for NIR signal in normal cells: normal HeLa cells
[9] = system: HeLa tumors; assay: HeLa xenografts imaging of senescence by NIR-BG1 and NIR-BG2; type: in vivo, mice; settings: for fluorescence of senescent tumor relative to normal tumor: CPT vs saline, quantification of optical imaging; for fluorescence of senescent tumor relative to normal tumor / fluorescence of CPT treated tumor compared to saline treated tumor: tail vein injection
Protocol: HeLa xenografts imaging was successfully performed to further evaluate the capability of NIR-BG1 and NIR-BG2 to visualize senescence in vivo. HeLa tumor-bearing mice were treated with CPT or saline to induce the senescent cancer cells. […] Ex vivo imaging and quantitative analysis of the tumors and organs further confirmed the in vivo imaging results.

[10] = system: β-galactosidase
Source text: FIG. 25A is absorbance and emission spectra of the unactivated NIR-BG probe by β-galactosidase.
FIG. 25B is absorbance and emission spectra of the activated NIR-BG probe by β-galactosidase.

[11] = system: HeLa tumors; assay: Fluorescence imaging of chemotherapy-induced senescence in HeLa xenografts (NIR-BG); type: in vivo, mice; settings: 675 nm excitation and 720 nm emission
Protocol: We then moved on to HeLa xenografted mice models to see whether probe NIR-BG could visualize chemotherapy-induced senescence in tumors. (FIGS. 26-28) Tumor-bearing mice were first systemically treated with CPT or saline before the probe NIR-BG was injected. […] We were delighted to find that NIR-BG behaved similarly in the drug-treated mice (with drug-induction triggered expression of β-gal) to the CT26 tumor models (with genetically expressed β-gal). […] While not depicted, resected intact whole tumor staining, histochemical staining with X-gal and immunofluorescent staining of tumor tissue with antibodies against β-gal further confirmed the probe activation in senescent tumors.

[12] = system: CT26.WT cells
Protocol: (§6) In order to see whether our NIR-BG probe can be used for β-gal detection in live cells, we chose an engineered cell line that stably express LacZ(+), the gene that encodes β-gal. […] Cell samples after incubating with our NIR-BG probe were analyzed using flow cytometry (FIG. 13-15) and confocal microscopy (not shown).

[13] = system: HeLa cells; assay: Confocal microscopy of normal and senescent cells; type: cell-based, human
Source text: (§4) Since SABG is localized in the lysosome, we then performed confocal microscopy of the normal and senescent HeLa or MCF7 cells (Not shown). […] X-gal staining also verified the existence of SABG in cells after chemotherapy and radiation therapy.

[14] = system: MCF7 cells; assay: Confocal microscopy of normal and senescent cells; type: cell-based, human
Source text: as §4

[15] = system: CT26.CL25 cells; assay: Confocal fluorescence microscopy of LacZ(+) live cells; type: cell-based, mouse
Protocol: (§7) In order to see whether our NIR-BG probe can be used for β-gal detection in live cells, we chose an engineered cell line that stably express LacZ(+), the gene that encodes β-gal. CT26.CL25, a mouse colon fibroblast carcinoma cell line that express β-gal, was therefore used in our initial live cell experiments. […] Cell samples after incubating with our NIR-BG probe were analyzed using flow cytometry (FIG. 13-15) and confocal microscopy (not shown).

[16] = system: β-gal in LacZ(+) cells (CT26.CL25); assay: Flow cytometry detection of β-gal in LacZ(+) live cells; type: cell-based, mouse; settings: CT26.CL25, 1 hour and 4 hours, probe 10 μM, λex=640 nm
Protocol: FIG. 13 is a graph showing flow cytometry detection of β-gal by the NIR-BG probe in LacZ(+) cells (CT26.CL25) probe (10 μM), λex=640 nm.
(§5) FIG. 15 depicts the quantification of the mean fluorescence intensity in FIGS. 13 and 14.

[17] = system: CT26.WT cells; assay: Confocal fluorescence microscopy, wild type control cells; type: cell-based, mouse; settings: after 4-hour incubation
Protocol: as §7

[18] = system: CT26.CL25 and CT26.WT tumors; assay: Fluorescence imaging of CT26 tumors with and without active β-gal; type: in vivo, mice
Source text: In a preliminary experiment, we used the genetically modified mice colon cancer cell line CT26 to determine whether NIR-BG could differentiate tumors with and without active β-gal (Not shown). […] We also confirmed β-gal expression in resected whole tumor and tumor slides (Not shown).

[19] = system: CT26.CL25 cells
Protocol: as §6

[20] = system: CT26.WT cells; assay: Flow cytometry, negative control cells; type: cell-based, mouse; settings: same treatment, probe 10 μM, λex=640 nm
Protocol: FIG. 14 is a graph showing flow cytometry detection of negative control CT26.WTcells probe (10 μM), λex=640 nm.
as §5

[21] = system: β-gal; settings: cited from earlier work

C[C@@H]1C[C@@H]([C@H](O)CC2CC(=O)NC(=O)C2)C(=O)[C@@H](C)C1 [CHX, cycloheximide, reference compound]
NIR-BG fluorescence in cells treated with both CPT and CHX compared to the CPT-treated group ([1]; MCF7): significantly reduced
NIR-BG fluorescence in cells treated with both CPT and CHX compared to the CPT-treated group [2]: significantly reduced

CC[C@@]1(O)C(=O)OCc2c1cc1n(c2=O)Cc2cc3ccccc3nc2-1 [CPT, camptothecin]
p16 and p21 expression upon treatment [3]: higher levels
β-gal levels compared with the control cells [3]: elevated
tumor growth compared to saline only [4]: significantly inhibited
p16 and p21 expression compared with normal cells [5]: both increased
β-gal levels compared with the control cells [5]: elevated

CCC[N+]1=C(/C=C/C2=C3Oc4cc(OCc5ccc(O[C@@H]6O[C@H](CO)[C@H](O)[C@H](O)[C@H]6O)cc5)ccc4C=C3CCC2)C(C)(C)c2ccccc21 [NIR-BG1]
NIR fluorescence [6]: high NIR fluorescence
signal in the NIR channel [7]: background signal
NIR signal in normal cells [8]: no significant signal
NIR signal in senescent cells ([8]; senescent HeLa cells): showed NIR signals
fluorescence of senescent tumor relative to normal tumor [9]: 2.84 times
fluorescence of CPT treated tumor compared to saline treated tumor [9]: significantly increased fluorescence

CCC[N+]1=C(/C=C/C2=C3Oc4cc(OCc5ccc(O[C@@H]6O[C@H](CO)[C@H](O)[C@H](O)[C@H]6O)cc5)c(C(F)F)cc4C=C3CCC2)C(C)(C)c2ccccc21 [NIR-BG2]
NIR fluorescence [6]: high NIR fluorescence
NIR signal compared with NIR-BG1 [6]: significantly higher
signal in the NIR channel [7]: background signal
NIR signal in normal cells [8]: no significant signal
NIR signal compared with NIR-BG1 ([8]; senescent HeLa cells): significantly higher
NIR signal in senescent cells ([8]; senescent HeLa cells): showed NIR signals
signal and accumulation in the tumors compared with NIR-BG1 [9]: much higher signal and extended accumulation
fluorescence of senescent tumor relative to normal tumor [9]: 3.06 times
fluorescence of CPT treated tumor compared to saline treated tumor [9]: significantly increased fluorescence

CCC[N+]1=C(/C=C/C2=C3Oc4cc(O[C@@H]5O[C@H](CO)[C@H](O)[C@H](O)[C@H]5O)ccc4C=C3CCC2)C(C)(C)c2ccccc21 [NIR-BG]
maximal absorption ([10]; activated probe): 680 nm
maximal emission ([10]; activated probe): 710 nm
absorption peak ([10]; unactivated probe): around 640 nm
emission peak ([10]; unactivated probe): around 660 nm
flow cytometry fluorescence of CPT or radiation treated cells compared to untreated control cells ([1]; MCF7, probe 10 μM, λex=640 nm): significantly higher fluorescence
tumor signal of activated form, CPT treatment versus saline [11]: significantly higher signal
toxicity in cell culture (cell viability) [12]: did not appear toxic
colocalization of probe signal with lysosome and β-gal in senescent cells [13]: well colocalized
confocal fluorescence in CPT or radiation treated cells versus control cells without treatment [13]: strikingly higher
colocalization of probe signal with lysosome and β-gal in senescent cells [14]: well colocalized
confocal fluorescence in CPT or radiation treated cells versus control cells without treatment [14]: strikingly higher
colocalization of NIR signal with β-gal expression ([15]; CT26.CL25): highly colocalized
confocal fluorescence signal ([15]; CT26.CL25, 1-hour probe treatment): obvious
flow cytometry fluorescence [16]: obvious fluorescence
confocal fluorescence in the NIR channel [17]: no fluorescence
difference in tumor signal, CT26.CL25 versus CT26.WT tumors ([18]; 640 nm excitation and 680 nm emission): minimal
tumor signal, LacZ(+) CT26.CL25 versus CT26.WT tumors ([18]; 1 h after probe injection, 675 nm excitation and 720 nm emission): significantly higher signals
flow cytometry fluorescence of CPT or radiation treated cells compared to untreated control cells ([2]; probe 10 μM, λex=640 nm): significantly higher fluorescence
toxicity in cell culture (cell viability) [19]: did not appear toxic
flow cytometry fluorescence [20]: only background signal

hydroxymethyl rhodol (HMR) β-galactoside
fluorescence turn-on ratio [21]: 1,400 fold
